What was measured:
[1] = First order rate data for the hydrolysis of compound in 0.1 M hydrochloric acid pH 1 hydrolysis medium; Half-life in minutes; assay type: ADME
[2] = First order rate data for the hydrolysis of compound in 0.05 M phosphate buffer pH 7.4 hydrolysis medium; Half-life in minutes; assay type: ADME
[3] = First order rate data for the hydrolysis of compound in dog plasma hydrolysis medium; Half-life in minutes; assay type: ADME, Canis lupus familiaris
[4] = First order rate data for the hydrolysis of compound in rat plasma hydrolysis medium; Half-life in minutes; assay type: ADME
[5] = First order rate data for the hydrolysis of compound in 0.1 M hydrochloric acid pH 1 hydrolysis medium (adinotes no detectable hydrolysis after 48 h); Half-life in minutes; assay type: ADME

Question: What does the source list for `COc1ccc(CCNC(=O)OCc2oc(=O)oc2-c2ccccc2)cc1OC`?
Answer: half-life [1]: 59.2 h; half-life [2]: 2.23 h; half-life [3]: 0.183 h; half-life [4]: 0.0333 h

Question: With `COc1ccc(CCNC(=O)OCc2oc(=O)oc2C)cc1OC` as the molecule, how does the half-life [2] read?
Answer: 4.3 h

Question: What about the half-life [4] of the same molecule?
Answer: 0.183 h

Question: What about the half-life [5] of the same molecule?
Answer: > 50 h

Question: Which results are given for `COc1ccc(-c2oc(=O)oc2COC(=O)NCCc2ccc(OC)c(OC)c2)cc1`?
Answer: half-life [1]: 53 h; half-life [2]: 3.45 h; half-life [3]: 0.233 h; half-life [4]: 0.0333 h

From ChEMBL document CHEMBL1129662, “Investigation of (Oxodioxolenyl)methyl carbamates as nonchiral bioreversible prodrug moieties for chiral amines” (J Med Chem, 1996)
